Test results: the supplement of paper PMC11451515

Columns and labels:
Settings in all cases: 48 h
NOMO1 [1] = test: cell viability relative to DMSO control; higher = less cytotoxic
Procedure, shortened: (§1)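 NOMO1 or SEM (500 cells/well) or P12-Ichikawa (1000 cells/well) leukemia cells were adapted for at least four passages in each medium. They were seeded in 1536-well plates (5 μl) and pin-dosed with library compounds in DMSO over an 11-point threefold series, 47 μM to 0.79 nM. CellTiter-Glo One luminescence was read after 48 h at 37°C. Viability is the per-plate percentage relative to DMSO wells, with cell-free wells as background.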

P12-Ichikawa [2] = test: as above
Procedure, shortened: as §1

SEM cells [3] = test: as above
Procedure, shortened: as §1

NOMO1 [4] = test: AUC of viability dose-response curve (% viability x log10 dose units); higher = less sensitive
Procedure, shortened: (§2)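 Leukemia cells adapted to each medium were seeded at 500 or 1000 cells/well in 1536-well plates and dosed with library compounds in DMSO at 11 threefold doses from 47 μM to 0.79 nM for 48 h at 37°C. CellTiter-Glo One luminescence was normalised per plate to DMSO and cell-free wells, then fitted with a four-parameter log-logistic model over log10 doses. Area under the curve was taken from this fit by the trapezoidal rule, with curves above full viability scaled and curves failing quality control removed.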

P12-Ichikawa [5] = test: as above
Procedure, shortened: as §2

SEM cells [6] = test: as above
Procedure, shortened: as §2

CCOC(=O)c1ccc(C#Cc2ccc3c(c2)C(C)(C)CCS3)nc1
cell viability [%]
Settings	NOMO1 [1]	P12-Ichikawa [2]	SEM cells [3]
HPLM + 10% dialyzed FBS, 0.000781 µM	101	98.6	105
HPLM + 10% dialyzed FBS, 0.00234 µM	109	108	105
HPLM + 10% dialyzed FBS, 0.00702 µM	122	102	109
HPLM + 10% dialyzed FBS, 0.0211 µM	108	105	116
HPLM + 10% dialyzed FBS, 0.0632 µM	86.1	105	111
HPLM + 10% dialyzed FBS, 0.19 µM	104	118	75.4
HPLM + 10% dialyzed FBS, 0.569 µM	103	110	114
HPLM + 10% dialyzed FBS, 1.71 µM	101	110	118
HPLM + 10% dialyzed FBS, 5.12 µM	97.8	108	108
HPLM + 10% dialyzed FBS, 15.4 µM	89.1	107	114
HPLM + 10% dialyzed FBS, 46.1 µM	79.6	78.7	102
RPMI 5 mM glucose + 10% FBS, 0.000781 µM	94	95.2	98
RPMI 5 mM glucose + 10% FBS, 0.00234 µM	108	96.1	121
RPMI 5 mM glucose + 10% FBS, 0.00702 µM	91.6	106	122
RPMI 5 mM glucose + 10% FBS, 0.0211 µM	100	109	126
RPMI 5 mM glucose + 10% FBS, 0.0632 µM	93.3	108	118
RPMI 5 mM glucose + 10% FBS, 0.19 µM	94	106	75.6
RPMI 5 mM glucose + 10% FBS, 0.569 µM	107	101	121
RPMI 5 mM glucose + 10% FBS, 1.71 µM	96.8	106	122
RPMI 5 mM glucose + 10% FBS, 5.12 µM	99.4	106	116
RPMI 5 mM glucose + 10% FBS, 15.4 µM	98.6	110	108
RPMI 5 mM glucose + 10% FBS, 46.1 µM	94.2	94.5	113
RPMI 5 mM glucose + 10% dialyzed FBS, 0.000781 µM	90	98.8	89.2
RPMI 5 mM glucose + 10% dialyzed FBS, 0.00234 µM	108	99.9	100
RPMI 5 mM glucose + 10% dialyzed FBS, 0.00702 µM	104	109	101
RPMI 5 mM glucose + 10% dialyzed FBS, 0.0211 µM	109	110	98.1
RPMI 5 mM glucose + 10% dialyzed FBS, 0.0632 µM	97.9	108	106
RPMI 5 mM glucose + 10% dialyzed FBS, 0.19 µM	90.2	107	66.4
RPMI 5 mM glucose + 10% dialyzed FBS, 0.569 µM	90.7	102	99.5
RPMI 5 mM glucose + 10% dialyzed FBS, 1.71 µM	94.9	113	94.8
RPMI 5 mM glucose + 10% dialyzed FBS, 5.12 µM	94.6	104	90
RPMI 5 mM glucose + 10% dialyzed FBS, 15.4 µM	99.6	96.1	89.3
RPMI 5 mM glucose + 10% dialyzed FBS, 46.1 µM	88.7	102	93.5

AUC of viability dose-response curve
Settings	NOMO1 [4]	P12-Ichikawa [5]	SEM cells [6]
HPLM + 10% dialyzed FBS	436	470	472
RPMI 5 mM glucose + 10% FBS	467	469	477
RPMI 5 mM glucose + 10% dialyzed FBS	450	475	446

CC1=C(/C=C/C(C)=C/C=C/C(C)=C/C(=O)Nc2ccc(O)cc2)C(C)(C)CCC1
cell viability [%]
Settings	NOMO1 [1]	P12-Ichikawa [2]	SEM cells [3]
HPLM + 10% dialyzed FBS, 0.000781 µM	63.6	85.1	84.5
HPLM + 10% dialyzed FBS, 0.00234 µM	82.3	83.4	77.4
HPLM + 10% dialyzed FBS, 0.00702 µM	97.9	85.5	81.4
HPLM + 10% dialyzed FBS, 0.0211 µM	102	96.1	104
HPLM + 10% dialyzed FBS, 0.0632 µM	87.5	90.8	86.9
HPLM + 10% dialyzed FBS, 0.19 µM	81.5	91.8	83.9
HPLM + 10% dialyzed FBS, 0.569 µM	94.6	93.8	85.1
HPLM + 10% dialyzed FBS, 1.71 µM	80.6	68.5	42.5
HPLM + 10% dialyzed FBS, 5.12 µM	53.6	23.7	23.1
HPLM + 10% dialyzed FBS, 15.4 µM	25.9	8.54	5.89
HPLM + 10% dialyzed FBS, 46.1 µM	4.95	3.66	3.35
RPMI 5 mM glucose + 10% FBS, 0.000781 µM	72.4	82	85
RPMI 5 mM glucose + 10% FBS, 0.00234 µM	85.1	88.8	85.5
RPMI 5 mM glucose + 10% FBS, 0.00702 µM	74.5	83	92.2
RPMI 5 mM glucose + 10% FBS, 0.0211 µM	96.5	91.8	96.9
RPMI 5 mM glucose + 10% FBS, 0.0632 µM	91	86.3	81.4
RPMI 5 mM glucose + 10% FBS, 0.19 µM	79.9	81.9	88.6
RPMI 5 mM glucose + 10% FBS, 0.569 µM	95	87	83
RPMI 5 mM glucose + 10% FBS, 1.71 µM	78.8	57.9	65
RPMI 5 mM glucose + 10% FBS, 5.12 µM	63	28.5	30.7
RPMI 5 mM glucose + 10% FBS, 15.4 µM	34	7.98	9.06
RPMI 5 mM glucose + 10% FBS, 46.1 µM	4.45	1.15	3.24
RPMI 5 mM glucose + 10% dialyzed FBS, 0.000781 µM	78	83.3	76.8
RPMI 5 mM glucose + 10% dialyzed FBS, 0.00234 µM	76.4	85.9	71.5
RPMI 5 mM glucose + 10% dialyzed FBS, 0.00702 µM	77.8	84	80.1
RPMI 5 mM glucose + 10% dialyzed FBS, 0.0211 µM	92.9	84.8	85.3
RPMI 5 mM glucose + 10% dialyzed FBS, 0.0632 µM	90.9	83.4	76.6
RPMI 5 mM glucose + 10% dialyzed FBS, 0.19 µM	89.7	81.5	80.8
RPMI 5 mM glucose + 10% dialyzed FBS, 0.569 µM	86	83.3	82.2
RPMI 5 mM glucose + 10% dialyzed FBS, 1.71 µM	85.5	23.8	37.5
RPMI 5 mM glucose + 10% dialyzed FBS, 5.12 µM	55.8	6.39	20
RPMI 5 mM glucose + 10% dialyzed FBS, 15.4 µM	23.6	4.24	4.93
RPMI 5 mM glucose + 10% dialyzed FBS, 46.1 µM	3.24	1.74	2.92

AUC of viability dose-response curve
Settings	NOMO1 [4]	P12-Ichikawa [5]	SEM cells [6]
HPLM + 10% dialyzed FBS	347	326	301
RPMI 5 mM glucose + 10% FBS	348	311	322
RPMI 5 mM glucose + 10% dialyzed FBS	341	276	274

COC1=CC=C2C(=CC=NC2=C1)OC3=CC=C(NC(=O)\C4=C(C)\N(CC(C)(C)O)N(C4=O)C5=CC=CC=C5)C=C3F
cell viability [%]
Settings	NOMO1 [1]	P12-Ichikawa [2]	SEM cells [3]
HPLM + 10% dialyzed FBS, 0.000781 µM	124	121	108
HPLM + 10% dialyzed FBS, 0.00234 µM	116	123	99.9
HPLM + 10% dialyzed FBS, 0.00702 µM	104	122	129
HPLM + 10% dialyzed FBS, 0.0211 µM	115	123	108
HPLM + 10% dialyzed FBS, 0.0632 µM	132	123	114
HPLM + 10% dialyzed FBS, 0.19 µM	120	132	112
HPLM + 10% dialyzed FBS, 0.569 µM	108	135	112
HPLM + 10% dialyzed FBS, 1.71 µM	107	132	98.1
HPLM + 10% dialyzed FBS, 5.12 µM	125	129	60.7
HPLM + 10% dialyzed FBS, 15.4 µM	110	122	45.7
HPLM + 10% dialyzed FBS, 46.1 µM	105	118	39.1
RPMI 5 mM glucose + 10% FBS, 0.000781 µM	–	–	113
RPMI 5 mM glucose + 10% FBS, 0.00234 µM	–	–	108
RPMI 5 mM glucose + 10% FBS, 0.00702 µM	–	–	122
RPMI 5 mM glucose + 10% FBS, 0.0211 µM	–	–	115
RPMI 5 mM glucose + 10% FBS, 0.0632 µM	–	–	117
RPMI 5 mM glucose + 10% FBS, 0.19 µM	–	–	118
RPMI 5 mM glucose + 10% FBS, 0.569 µM	–	–	104
RPMI 5 mM glucose + 10% FBS, 1.71 µM	–	–	86.1
RPMI 5 mM glucose + 10% FBS, 5.12 µM	–	–	51.1
RPMI 5 mM glucose + 10% FBS, 15.4 µM	–	–	30.7
RPMI 5 mM glucose + 10% FBS, 46.1 µM	–	–	21.6
RPMI 5 mM glucose + 10% dialyzed FBS, 0.000781 µM	–	–	105
RPMI 5 mM glucose + 10% dialyzed FBS, 0.00234 µM	–	–	110
RPMI 5 mM glucose + 10% dialyzed FBS, 0.00702 µM	–	–	124
RPMI 5 mM glucose + 10% dialyzed FBS, 0.0211 µM	–	–	108
RPMI 5 mM glucose + 10% dialyzed FBS, 0.0632 µM	–	–	136
RPMI 5 mM glucose + 10% dialyzed FBS, 0.19 µM	–	–	130
RPMI 5 mM glucose + 10% dialyzed FBS, 0.569 µM	–	–	93.8
RPMI 5 mM glucose + 10% dialyzed FBS, 1.71 µM	–	–	69.7
RPMI 5 mM glucose + 10% dialyzed FBS, 5.12 µM	–	–	44.4
RPMI 5 mM glucose + 10% dialyzed FBS, 15.4 µM	–	–	35.8
RPMI 5 mM glucose + 10% dialyzed FBS, 46.1 µM	–	–	24.2

AUC of viability dose-response curve
Settings	NOMO1 [4]	P12-Ichikawa [5]	SEM cells [6]
HPLM + 10% dialyzed FBS	459	472	404
RPMI 5 mM glucose + 10% FBS	468	468	379
RPMI 5 mM glucose + 10% dialyzed FBS	467	469	365
